Experimental data: the supplement of paper PMC11061612

Experiments:
Test in all cases: combination Emax (second highest fraction inhibited in the dose matrix, 72 h); higher = more inhibition; extreme values may be limits of the assay
[1] = system: PANC-04-03 (Pancreatic Carcinoma)
Procedure, shortened: (§1)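 After 24 hours at 37°C and 5% CO2 in 1536-well plates, cells in DMEM/F12 or RPMI plus 10% FBS received two-drug dose matrices for 72 hours. Viability came from CellTiter-Glo 2.0 luminescence and was scaled as inhibition, anchored at 0 by vehicle wells and at 1 by blank wells. Combination Emax is taken as the second-highest inhibition in the matrix, and Bliss excess as the observed combination effect less EA + EB − EA·EB, with EA and EB the single-agent effects.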

TGW (Neuroblastoma) = system: TGW (Neuroblastoma)
Procedure, shortened: as §1

[2] = system: OVCAR-4 (Ovarian Carcinoma)
Procedure, shortened: as §1

[3] = system: Ca9-22 (Head and Neck Carcinoma)
Procedure, shortened: as §1

[4] = system: NUGC-3 (Gastric Carcinoma)
Procedure, shortened: as §1

[5] = system: EFM-19 (Breast Carcinoma)
Procedure, shortened: as §1

[6] = system: HOP-62 (Lung Adenocarcinoma)
Procedure, shortened: as §1

[7] = system: EoL-1-cell (Acute Myeloid Leukemia)
Procedure, shortened: as §1

[8] = system: SCC-15 (Oral Cavity Carcinoma)
Procedure, shortened: as §1

EW-24 (Ewing's Sarcoma) = system: EW-24 (Ewing's Sarcoma)
Procedure, shortened: as §1

TK10 (Kidney Carcinoma) = system: TK10 (Kidney Carcinoma)
Procedure, shortened: as §1

[9] = system: SU8686 (Pancreatic Carcinoma)
Procedure, shortened: as §1

[10] = system: NCI-H358 (Lung Adenocarcinoma)
Procedure, shortened: as §1

[11] = system: HSC-4 (Oral Cavity Carcinoma)
Procedure, shortened: as §1

YH-13 (Glioblastoma) = system: YH-13 (Glioblastoma)
Procedure, shortened: as §1

D-263MG (Glioblastoma) = system: D-263MG (Glioblastoma)
Procedure, shortened: as §1

[12] = system: KARPAS-299 (T-Cell Non-Hodgkin's Lymphoma)
Procedure, shortened: as §1

[13] = system: Hs-766T (Pancreatic Carcinoma)
Procedure, shortened: as §1

UACC-62 (Melanoma) = system: UACC-62 (Melanoma)
Procedure, shortened: as §1

PWR-1E (Non-Cancerous) = system: PWR-1E (Non-Cancerous)
Procedure, shortened: as §1

Structure (SMILES): COc1cccc(OCCCN)c1-c1cc(Nc2cnc(C#N)cn2)n[nH]1 [Prexasertib] + O=C(c1cc(Cc2n[nH]c(=O)c3ccccc23)ccc1F)N1CCN(C(=O)C2CC2)CC1 [Olaparib] (first compound max 1 µM, 7x7, partner max 10 µM)
- combination Emax [1]: 0.49
- combination Emax (TGW (Neuroblastoma)): 0.915
- combination Emax [2]: 0.743
- combination Emax [3]: 0.991
- combination Emax [4]: 0.726
- combination Emax [5]: 0.354
- combination Emax [6]: 0.606
- combination Emax [7]: 1
- combination Emax [8]: 0.482
- combination Emax (EW-24 (Ewing's Sarcoma)): 0.696
- combination Emax (TK10 (Kidney Carcinoma)): 0.625
- combination Emax [9]: 0.527
- combination Emax [10]: 0.85
- combination Emax [11]: 0.674
- combination Emax (YH-13 (Glioblastoma)): 0.804
- combination Emax (D-263MG (Glioblastoma)): 0.762
- combination Emax [12]: 1
- combination Emax [13]: 0.658
- combination Emax (UACC-62 (Melanoma)): 0.743
- combination Emax (PWR-1E (Non-Cancerous)): 0.71

Structure (SMILES): COc1cccc(OCCCN)c1-c1cc(Nc2cnc(C#N)cn2)n[nH]1 [Prexasertib] + C[C@@H]1COCCN1C2=NC(=NC(=C2)C3(CC3)[S@](=N)(=O)C)C4=C5C=CNC5=NC=C4 [AZD6738] (first compound max 1 µM, 7x7, partner max 10 µM)
- combination Emax [1]: 0.555
- combination Emax (TGW (Neuroblastoma)): 0.968
- combination Emax [2]: 0.832
- combination Emax [3]: 0.991
- combination Emax [4]: 0.762
- combination Emax [5]: 0.26
- combination Emax [6]: 0.648
- combination Emax [7]: 0.996
- combination Emax [8]: 0.663
- combination Emax (EW-24 (Ewing's Sarcoma)): 0.645
- combination Emax (TK10 (Kidney Carcinoma)): 0.686
- combination Emax [9]: 0.531
- combination Emax [10]: 0.825
- combination Emax [11]: 0.666
- combination Emax (YH-13 (Glioblastoma)): 0.793
- combination Emax (D-263MG (Glioblastoma)): 0.797
- combination Emax [12]: 0.985
- combination Emax [13]: 0.658
- combination Emax (UACC-62 (Melanoma)): 0.697
- combination Emax (PWR-1E (Non-Cancerous)): 0.973

Structure (SMILES): NC1(C(=O)N[C@@H](CCO)c2ccc(Cl)cc2)CCN(c2ncnc3[nH]ccc23)CC1 [Capivasertib] + COc1nnc2ccc(N3CCC(c4ccc(OCCN5CCN(C)C(=O)[C@H]5C)cc4)CC3)nn12 [AZD5153] (first compound max 10 µM, 7x7, partner max 1 µM)
- combination Emax [1]: 0.495
- combination Emax (TGW (Neuroblastoma)): 0.867
- combination Emax [2]: 0.398
- combination Emax [3]: 0.799
- combination Emax [4]: 0.617
- combination Emax [5]: 0.538
- combination Emax [6]: 0.648
- combination Emax [7]: 1
- combination Emax [8]: 0.508
- combination Emax (EW-24 (Ewing's Sarcoma)): 0.756
- combination Emax (TK10 (Kidney Carcinoma)): 0.63
- combination Emax [9]: 0.0398
- combination Emax [10]: 0.585
- combination Emax [11]: 0.529
- combination Emax (YH-13 (Glioblastoma)): 0.723
- combination Emax (D-263MG (Glioblastoma)): 0.562
- combination Emax [12]: 0.741
- combination Emax [13]: 0.457
- combination Emax (UACC-62 (Melanoma)): 0.56
- combination Emax (PWR-1E (Non-Cancerous)): 0.861

Structure (SMILES): Cc1c2c(nn1C)CSCc1cc(n(C)n1)CSc1cc(c3ccccc3c1)OCCCc1c(C(=O)O)n(C)c3c-2c(Cl)ccc13 [AZD5991] + CN(C)CCCOc1ccc(-c2ccc3ncc4c(c3c2)n(C2CCOCC2)c(=O)n4C)cn1 [AZD0156] (first compound max 1 µM, 7x7, partner max 1 µM)
- combination Emax [1]: 0.24
- combination Emax (TGW (Neuroblastoma)): 0.293
- combination Emax [2]: 0.279
- combination Emax [3]: 0.256
- combination Emax [4]: 0.369
- combination Emax [5]: 0.494
- combination Emax [6]: 0.473
- combination Emax [7]: 0.999
- combination Emax [8]: 0.269
- combination Emax (EW-24 (Ewing's Sarcoma)): 0.291
- combination Emax (TK10 (Kidney Carcinoma)): 0.272
- combination Emax [9]: 0.16
- combination Emax [10]: 0.308
- combination Emax [11]: 0.197
- combination Emax (YH-13 (Glioblastoma)): 0.254
- combination Emax (D-263MG (Glioblastoma)): 0.711
- combination Emax [12]: 0.978
- combination Emax [13]: 0.372
- combination Emax (UACC-62 (Melanoma)): 0.812
- combination Emax (PWR-1E (Non-Cancerous)): 0.29

Structure (SMILES): COc1nnc2ccc(N3CCC(c4ccc(OCCN5CCN(C)C(=O)[C@H]5C)cc4)CC3)nn12 [AZD5153] + CCN(CCO)CCCOc1ccc2c(Nc3cc(CC(=O)Nc4cccc(F)c4)[nH]n3)ncnc2c1 [AZD2811] (first compound max 1 µM, 7x7, partner max 1 µM)
- combination Emax [1]: 0.487
- combination Emax (TGW (Neuroblastoma)): 0.501
- combination Emax [2]: 0.467
- combination Emax [3]: 0.592
- combination Emax [4]: 0.579
- combination Emax [5]: 0.366
- combination Emax [6]: 0.631
- combination Emax [7]: 1
- combination Emax [8]: 0.41
- combination Emax (EW-24 (Ewing's Sarcoma)): 0.616
- combination Emax (TK10 (Kidney Carcinoma)): 0.564
- combination Emax [9]: 0.0898
- combination Emax [10]: 0.352
- combination Emax [11]: 0.292
- combination Emax (YH-13 (Glioblastoma)): 0.585
- combination Emax (D-263MG (Glioblastoma)): 0.445
- combination Emax [12]: 0.847
- combination Emax [13]: 0.416
- combination Emax (UACC-62 (Melanoma)): 0.478
- combination Emax (PWR-1E (Non-Cancerous)): 0.782

Structure (SMILES): Cc1c2c(nn1C)CSCc1cc(n(C)n1)CSc1cc(c3ccccc3c1)OCCCc1c(C(=O)O)n(C)c3c-2c(Cl)ccc13 [AZD5991] + C1CN(CCC1(C(=O)N[C@@H](CCO)C2=CC=C(C=C2)Cl)N)C3=NC=NC4=C3C=CN4 [Capivasertib] (first compound max 1 µM, 7x7, partner max 3 µM)
- combination Emax [1]: 0.186
- combination Emax (TGW (Neuroblastoma)): 0.326
- combination Emax [2]: 0.18
- combination Emax [3]: 0.242
- combination Emax [4]: 0.171
- combination Emax [5]: 0.629
- combination Emax [6]: 0.257
- combination Emax [7]: 1
- combination Emax [8]: 0.207
- combination Emax (EW-24 (Ewing's Sarcoma)): 0.332
- combination Emax (TK10 (Kidney Carcinoma)): 0.257
- combination Emax [9]: 0.129
- combination Emax [10]: 0.243
- combination Emax [11]: 0.42
- combination Emax (YH-13 (Glioblastoma)): 0.265
- combination Emax (D-263MG (Glioblastoma)): 0.958
- combination Emax [12]: 1
- combination Emax [13]: 0.23
- combination Emax (UACC-62 (Melanoma)): 0.934
- combination Emax (PWR-1E (Non-Cancerous)): 0.226

Structure (SMILES): CC(=O)c1c(C)c2cnc(Nc3ccc(N4CCNCC4)cn3)nc2n(C2CCCC2)c1=O [Palbociclib] + Cn1cnc2c(F)c(Nc3ccc(Br)cc3Cl)c(C(=O)NOCCO)cc21 [Selumetinib] (first compound max 10 µM, 7x7, partner max 10 µM)
- combination Emax [1]: 0.404
- combination Emax (TGW (Neuroblastoma)): 0.342
- combination Emax [2]: 0.286
- combination Emax [3]: 0.458
- combination Emax [4]: 0.533
- combination Emax [5]: 0.162
- combination Emax [6]: 0.471
- combination Emax [7]: 0.952
- combination Emax [8]: 0.232
- combination Emax (EW-24 (Ewing's Sarcoma)): 0.318
- combination Emax (TK10 (Kidney Carcinoma)): 0.427
- combination Emax [9]: 0.173
- combination Emax [10]: 0.524
- combination Emax [11]: 0.261
- combination Emax (YH-13 (Glioblastoma)): 0.387
- combination Emax (D-263MG (Glioblastoma)): 0.265
- combination Emax [12]: 0.594
- combination Emax [13]: 0.465
- combination Emax (UACC-62 (Melanoma)): 0.764
- combination Emax (PWR-1E (Non-Cancerous)): 0.142
